Source: US20240390438A1, “PROBIOTICS SEPARATED FROM RABBIT FECES AND FOOD CONTAINING PROBIOTICS” (AGENT Innovation Co., Ltd., priority 2021, published 2024)
≈ marks a conversion by molar mass, not a printed value.

What was measured:
[1] = tested on: species L. plantarum; conditions: EFSA (2005); cited from earlier work
[2] = tested on: L. plantarum 299v; conditions: from Klarin et al., 2019; cited from earlier work
[3] = tested on: L. pl 24-5D; conditions: from Georgieva et al., 2015; cited from earlier work
[4] = tested on: L. plantarum 299; conditions: from Klarin et al., 2019; cited from earlier work
[5] = tested on: L. pl 24-2L; conditions: from Georgieva et al., 2015; cited from earlier work
[6] = tested on: Shigella sonnei; experiment: Minimum inhibitory concentration and minimum bacterial concentration; assay type: cell-based; conditions: antibiotics; for MIC: 37 C 24 h, OD600; for MBC: plated on nutrient agar 48-72 h
Experimental: (§1) Minimum inhibitory concentration (MIC) refers to the minimum concentration at which the development of bacteria can be blocked and antibacterial resistance can be observed after cultured. The lower MIC means the better effect on bacteria.
(§2) The supernatants of the cultured colonies described above were collected, as cell-free solutions (CFSs), by centrifuge at 5000 rpm after cultured the colonies in a nutrient broth and shaking at 37° C. for 48 hours.
(§3) Next, 100 μL each of the CFSs and 100 μL bacterial solutions of the pathogenic bacteria were respectively added to each well of a 96-well plate. Thus, the total volume in each well was 200 μL. The tested pathogenic bacteria included Salmonella enterica, Shigella sonnei, Klebsiella pneumoniae, Streptococcus pneumoniae, Bacillus cereus, Staphylococcus aureus, Pseudomonas aeruginosa, and Escherichia coli.
(§4) As well, 100 μL each of the nutrient broth containing Ampicillin or Kanamycin and 100 μL bacterial solutions of the pathogenic bacteria were respectively added to each well of a 96-well plate. Thus, the total volume in each well was 200 μL.
(§5) Then, initial values of OD600 in each well were recorded. Subsequently, the 96-well plates were cultured at 37° C. for 24 hours, and the OD600 values thereof were re-recorded for determining the MICs of each colony described above.
(§6) Finally, 100 μL CFSs of the next three concentrations […] MIC were taken to be plated on nutrient agar and then cultured at 37° C. for 48-72 hours. The concentrations of the CFSs that no colonies grown on nutrient agar were determined to be the minimum bacterial concentration (MBCs).

[7] = tested on: Staphylococcus aureus; experiment: as above; assay type: cell-based; conditions: antibiotics; for MIC: 37 C 24 h, OD600; for MBC: plated on nutrient agar 48-72 h
Experimental: as §1, §2, §3, §4, §5, §6

[8] = tested on: Klebsiella pneumoniae; experiment: Agar diffusion method-2 (cell-free solution); assay type: cell-based; conditions: colonies as cell-free solution in holes of TSA; ddH2O control 8
Experimental: (§7) Firstly, the CFSs (containing metabolites) were prepared. Besides, when probiotics break down fiber and convert the fiber into metabolites, the metabolites are postbiotics.
(§8) Next, the pathogenic bacteria described above were also cultured with 37° C. until the concentration thereof reached 1×10^8 CFU/mL, respectively. 100 μL bacterial solutions of the pathogenic bacteria described above were evenly plated on Tryptone Soy Agar (TSA) and stay for 10 minutes. Then, tips were used to form several holes in the TSA. Subsequently, 100 μL bacterial solutions of the colonies described above were added into the holes and then cultured at 37° C. for 12 hours.
(§9) This experiment is designed that the CFSs in the holes prevent the pathogenic bacteria on the plates from growing. Therefore, the larger zone indicates the better antibacterial effect.

[9] = tested on: Streptococcus pneumoniae; experiment: Agar diffusion method-2 (cell-free solution); assay type: cell-based; conditions: colonies as cell-free solution in holes of TSA; ddH2O control 8
Experimental: as §7, §8, §9

[10] = tested on: Bacillus cereus; experiment: Agar diffusion method-2 (cell-free solution); assay type: cell-based; conditions: colonies as cell-free solution in holes of TSA; ddH2O control 8
Experimental: as §7, §8, §9

[11] = tested on: Pseudomonas aeruginosa; experiment: Agar diffusion method-2 (cell-free solution); assay type: cell-based; conditions: colonies as cell-free solution in holes of TSA; ddH2O control 8
Experimental: as §7, §8, §9

[12] = tested on: Shigella sonnei; experiment: Agar diffusion method-2 (cell-free solution); assay type: cell-based; conditions: colonies as cell-free solution in holes of TSA; ddH2O control 8
Experimental: as §7, §8, §9

[13] = tested on: Escherichia coli (ETEC); experiment: Agar diffusion method-2 (cell-free solution); assay type: cell-based; conditions: colonies as cell-free solution in holes of TSA; ddH2O control 8
Experimental: as §7, §8, §9

[14] = tested on: Salmonella enterica; experiment: Agar diffusion method-2 (cell-free solution); assay type: cell-based; conditions: colonies as cell-free solution in holes of TSA; ddH2O control 8
Experimental: as §7, §8, §9

[15] = tested on: Colony PTA22; experiment: Antibiotic susceptibility test; assay type: cell-based, Lactiplantibacillus Plantarum; conditions: for MIC: Lactiplantibacillus plantarum, PTA22, 24 h, read-out: Minimum inhibitory concentration of the antibiotic to PTA22, 96-well, 37 C 24 h, OD600
Source text: (§10) To test bacterial susceptibility to antibiotics, such as Aminoglycosides antibiotics, Sulfonamide antibiotics, Quinolone antibiotics, Ampicillin, Cefotaxime, Chloramphenicol, Erythromycin, Rifampicin and Tetracycline, the experimental protocol were as follow. Further, the Quinolone antibiotics comprise Ciprofloxacin, the Aminoglycosides antibiotics comprise Kanamycin and […], and the Sulfonamide antibiotics comprise Sulfamethoxazole. […] The initial absorbance at 600 nm (OD600) of each well was recorded. Then, the 96-well plates were placed at 37° C. and cultured for 24 hours. Next, the OD600 of each well was measured again to determine minimum inhibitory concentration.

[16] = tested on: Colony LP19; experiment: Antibiotic susceptibility test; assay type: cell-based, Lactiplantibacillus Plantarum; conditions: for MIC: Lactiplantibacillus plantarum, LP19, 24 h, read-out: Minimum inhibitory concentration of the antibiotic to LP19, 96-well, 37 C 24 h, OD600
Source text: as §10

[17] = tested on: Colony LP2; experiment: Antibiotic susceptibility test; assay type: cell-based, Lactiplantibacillus Plantarum; conditions: 96-well, 37 C 24 h, OD600; for MIC: Lactiplantibacillus plantarum, LP2, 24 h, read-out: Minimum inhibitory concentration of the antibiotic to LP2
Source text: as §10

[18] = tested on: Colony LP1; experiment: Antibiotic susceptibility test; assay type: cell-based, Lactiplantibacillus Plantarum; conditions: for MIC: Lactiplantibacillus plantarum, LP1, 24 h, read-out: Minimum inhibitory concentration of the antibiotic to LP1, 96-well, 37 C 24 h, OD600
Source text: as §10

[19] = tested on: Colony LP5; experiment: Antibiotic susceptibility test; assay type: cell-based, Lactiplantibacillus Plantarum; conditions: for MIC: Lactiplantibacillus plantarum, LP5, 24 h, read-out: Minimum inhibitory concentration of the antibiotic to LP5, 96-well, 37 C 24 h, OD600
Source text: as §10

[20] = tested on: Klebsiella pneumoniae; experiment: Minimum inhibitory concentration and minimum bacterial concentration; assay type: cell-based; conditions: antibiotics
Experimental: as §1, §2, §3, §4, §5, §6

[21] = tested on: Streptococcus pneumoniae; experiment: as above; assay type: cell-based; conditions: antibiotics
Experimental: as §1, §2, §3, §4, §5, §6

[22] = tested on: Bacillus cereus; experiment: as above; assay type: cell-based; conditions: antibiotics
Experimental: as §1, §2, §3, §4, §5, §6

[23] = tested on: Pseudomonas aeruginosa; experiment: as above; assay type: cell-based; conditions: antibiotics
Experimental: as §1, §2, §3, §4, §5, §6

[24] = tested on: Escherichia coli (ETEC); experiment: as above; assay type: cell-based; conditions: antibiotics
Experimental: as §1, §2, §3, §4, §5, §6

[25] = tested on: Staphylococcus aureus; experiment: Agar diffusion method-2 (cell-free solution); assay type: cell-based; conditions: colonies as cell-free solution in holes of TSA; ddH2O control 8
Experimental: as §7, §8, §9

[26] = tested on: Salmonella enterica; experiment: Minimum inhibitory concentration and minimum bacterial concentration; assay type: cell-based
Experimental: Finally, 100 μL CFSs of the next three concentrations below MIC were taken to be plated on nutrient agar and then cultured at 37° C. for 48-72 hours. The concentrations of the CFSs that no colonies grown on nutrient agar were determined to be the minimum bacterial concentration (MBCs).

[27] = plated on nutrient agar 48-72 h

Structure (SMILES): CC1(C)S[C@@H]2[C@H](NC(=O)[C@H](N)c3ccccc3)C(=O)N2[C@H]1C(=O)O [Ampicillin]
- EFSA, MIC breakpoints species L. plantarum [1]: 4 mg/L
- Minimum inhibitory concentration of the antibiotic to L. plantarum 299v [2]: 0.094 mg/L
- Minimum inhibitory concentration of the antibiotic to L. pl 24-5D [3]: 1 mg/L
- Minimum inhibitory concentration of the antibiotic to L. plantarum 299 [4]: 0.094 mg/L
- Minimum inhibitory concentration of the antibiotic to L. pl 24-2L [5]: 0.38 mg/L
- MIC [6]: 8 mg/L (≈ 22.9 µM)
- MBC [6]: 16 mg/L (≈ 45.8 µM)
- MIC [7]: 0.5 mg/L (≈ 1.43 µM)
- MBC [7]: 1 mg/L (≈ 2.86 µM)
- Inhibitory zone, Klebsiella Pneumoniae [8]: 8 mm
- Inhibitory zone, Streptococcus Pneumoniae [9]: 8 mm
- Inhibitory zone, Bacillus Cereus [10]: 8 mm
- Inhibitory zone, Pseudomonas Aeruginosa [11]: 8 mm
- Inhibitory zone, Shigella Sonnei [12]: 12 mm
- Inhibitory zone, Escherichia coli (ETEC) [13]: 8 mm
- Inhibitory zone, Salmonella Enterica [14]: 8 mm
- MIC [15]: 0.5 mg/L (≈ 1.43 µM)
- MIC [16]: 0.25 mg/L (≈ 0.715 µM)
- MIC [17]: 0.25 mg/L (≈ 0.715 µM)
- MIC [18]: 0.125 mg/L (≈ 0.358 µM)
- MIC [19]: 0.25 mg/L (≈ 0.715 µM)

Structure (SMILES): NC[C@H]1O[C@H](O[C@H]2[C@H](O)[C@@H](O[C@H]3O[C@H](CO)[C@@H](O)[C@H](N)[C@H]3O)[C@H](N)C[C@@H]2N)[C@H](O)[C@@H](O)[C@@H]1O [Kanamycin]
- MIC ([20]; 37 C 24 h, OD600): 32 mg/L (≈ 66 µM)
- MBC [20, 27]: 64 mg/L (≈ 132 µM)
- MIC ([21]; 37 C 24 h, OD600): 8 mg/L (≈ 16.5 µM)
- MBC [21, 27]: 16 mg/L (≈ 33 µM)
- MIC ([22]; 37 C 24 h, OD600): 256 mg/L (≈ 528 µM)
- MBC [22, 27]: > 256 mg/L
- MIC ([23]; 37 C 24 h, OD600): 8 mg/L (≈ 16.5 µM)
- MBC [23, 27]: 16 mg/L (≈ 33 µM)
- MIC [6]: 16 mg/L (≈ 33 µM)
- MBC [6]: 64 mg/L (≈ 132 µM)
- MIC ([24]; 37 C 24 h, OD600): 64 mg/L (≈ 132 µM)
- MBC [24, 27]: 128 mg/L (≈ 264 µM)
- MIC [7]: 4 mg/L (≈ 8.26 µM)
- MBC [7]: 8 mg/L (≈ 16.5 µM)
- Inhibitory zone, Klebsiella Pneumoniae [8]: 20 mm
- Inhibitory zone, Streptococcus Pneumoniae [9]: 20 mm
- Inhibitory zone, Bacillus Cereus [10]: 20 mm
- Inhibitory zone, Pseudomonas Aeruginosa [11]: 20 mm
- Inhibitory zone, Shigella Sonnei [12]: 20 mm
- Inhibitory zone, Escherichia coli (ETEC) [13]: 17 mm
- Inhibitory zone, Staphylococcus Aureus [25]: 23 mm
- Inhibitory zone, Salmonella Enterica [14]: 16 mm
- Minimum inhibitory concentration of the antibiotic to PTA22 ([15]; 96-well, 37 C 24 h, OD600): >256 mg/L
- MIC [15]: > 256 mg/L
- Minimum inhibitory concentration of the antibiotic to LP19 ([16]; 96-well, 37 C 24 h, OD600): >256 mg/L
- MIC [16]: > 256 mg/L
- Minimum inhibitory concentration of the antibiotic to LP2 [17]: >256 mg/L
- MIC [17]: > 256 mg/L
- Minimum inhibitory concentration of the antibiotic to LP1 ([18]; 96-well, 37 C 24 h, OD600): >256 mg/L
- MIC [18]: > 256 mg/L
- Minimum inhibitory concentration of the antibiotic to LP5 ([19]; 96-well, 37 C 24 h, OD600): >256 mg/L
- MIC [19]: > 256 mg/L
- MIC ([26]; 24 h, read-out: MIC, Salmonella Enterica): 64 mg/L (≈ 132 µM)
- MBC ([26]; antibiotics, plated on nutrient agar 48-72 h): 128 mg/L (≈ 264 µM)
